Consider 30 compounds from patent publication US11046699B2, “Pyrazolo-pyrimidin-amino-cycloalkyl compounds and their therapeutic uses” (RAPT THERAPEUTICS, INC., priority 2018, dated 2021).

For the experiment, the target named is GCN2 (Homo sapiens, UniProt Q9P2K8). In words: GCN2 enzymatic endpoint assay: phosphorylation of GFP-eIF2α measured by TR-FRET (Lanthascreen). It is filed as biochemical. Particulars: tested as described in Example 77; compound and/or hydrochloride, dihydrochloride or trifluoroacetic acid salt; read-out: IC 50 Activity. The essentials: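 Reaction started with 2 μM ATP and 80 nM GFP-labelled eIF2α substrate at room temperature, stopped with EDTA after 90 minutes. Phospho-eIF2α detected by terbium-labelled antibody TR-FRET; activity taken as 520 nm (fluorescein) to 495 nm (terbium) emission ratio.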
Sequence of GCN2 (Q9P2K8 whole entry): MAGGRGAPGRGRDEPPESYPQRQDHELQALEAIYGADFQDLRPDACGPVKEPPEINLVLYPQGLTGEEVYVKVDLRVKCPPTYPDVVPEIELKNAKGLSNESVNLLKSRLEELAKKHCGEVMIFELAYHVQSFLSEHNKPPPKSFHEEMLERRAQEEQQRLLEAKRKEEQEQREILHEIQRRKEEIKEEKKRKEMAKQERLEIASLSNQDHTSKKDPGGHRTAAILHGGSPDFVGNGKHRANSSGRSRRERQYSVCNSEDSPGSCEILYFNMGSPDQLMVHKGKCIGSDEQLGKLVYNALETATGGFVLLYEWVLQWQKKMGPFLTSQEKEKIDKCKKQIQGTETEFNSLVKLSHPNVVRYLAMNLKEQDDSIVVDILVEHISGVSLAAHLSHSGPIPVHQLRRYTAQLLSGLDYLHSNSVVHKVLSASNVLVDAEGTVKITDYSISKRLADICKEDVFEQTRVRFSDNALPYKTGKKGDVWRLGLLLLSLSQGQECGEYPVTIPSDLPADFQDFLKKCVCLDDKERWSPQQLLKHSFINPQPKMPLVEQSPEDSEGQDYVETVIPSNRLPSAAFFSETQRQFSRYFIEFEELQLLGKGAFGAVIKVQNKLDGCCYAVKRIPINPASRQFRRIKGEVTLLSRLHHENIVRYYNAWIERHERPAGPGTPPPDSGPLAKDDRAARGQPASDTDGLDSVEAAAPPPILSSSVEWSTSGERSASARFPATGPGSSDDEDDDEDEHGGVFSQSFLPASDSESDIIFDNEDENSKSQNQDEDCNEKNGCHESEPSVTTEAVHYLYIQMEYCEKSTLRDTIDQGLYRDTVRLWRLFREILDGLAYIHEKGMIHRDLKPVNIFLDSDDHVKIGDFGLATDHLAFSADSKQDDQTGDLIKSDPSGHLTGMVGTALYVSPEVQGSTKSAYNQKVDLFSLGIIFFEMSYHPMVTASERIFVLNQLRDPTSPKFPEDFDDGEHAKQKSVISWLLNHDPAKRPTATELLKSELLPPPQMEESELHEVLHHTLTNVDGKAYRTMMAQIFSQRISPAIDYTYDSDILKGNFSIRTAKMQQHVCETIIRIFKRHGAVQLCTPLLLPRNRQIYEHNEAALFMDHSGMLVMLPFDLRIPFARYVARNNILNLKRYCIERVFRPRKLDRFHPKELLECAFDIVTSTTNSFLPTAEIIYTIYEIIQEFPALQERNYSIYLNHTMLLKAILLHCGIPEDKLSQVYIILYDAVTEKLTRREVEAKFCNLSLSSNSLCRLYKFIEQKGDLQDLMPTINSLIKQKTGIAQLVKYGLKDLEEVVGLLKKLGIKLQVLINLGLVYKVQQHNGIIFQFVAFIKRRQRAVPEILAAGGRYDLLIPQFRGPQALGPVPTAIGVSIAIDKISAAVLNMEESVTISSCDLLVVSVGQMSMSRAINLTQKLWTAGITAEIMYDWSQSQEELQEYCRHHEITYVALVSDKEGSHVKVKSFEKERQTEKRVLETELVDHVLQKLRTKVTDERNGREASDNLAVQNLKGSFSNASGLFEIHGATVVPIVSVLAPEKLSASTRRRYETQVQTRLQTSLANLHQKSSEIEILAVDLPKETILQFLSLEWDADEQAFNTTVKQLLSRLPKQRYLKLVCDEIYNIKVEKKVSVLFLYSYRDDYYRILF

Take `CC(=O)OCC(=O)N1CCN(C(=O)[C@@H]2CC[C@@H](Nc3ncc4c(Br)nn(-c5cc(C#N)c6ncccc6c5)c4n3)C2)CC1` [2-(4-((1R,3R)-3-((3-bromo-1-(8-cyanoquinolin-6-yl)-1H-pyrazolo[3,4-d]pyrimidin-6-yl)amino)cyclopentane-1-carbonyl)piperazin-1-yl)-2-oxoethyl acetate]: the IC50 was less than 25 nM.

On to `CNC(=O)CC1CC(Nc2ncc3c(Br)nn(-c4cc(CCN)c5ccccc5c4)c3n2)C1` (stereo not drawn) [2-[3-[[1-[4-(2-aminoethyl)-2-naphthyl]-3-bromo-pyrazolo[3,4-d]pyrimidin-6-yl]amino]cyclobutyl]-N-methyl-acetamide; 2,2,2-trifluoroacetic acid], for which the IC50 fell in the range of 25 to 200 nM. The result for `N#CCN1CCN(C(=O)[C@@H]2CC[C@@H](Nc3ncc4c(Br)nn(-c5cc(F)c6ncccc6c5)c4n3)C2)CC1` [2-[4-[(1R,3R)-3-[[3-bromo-1-(8-fluoro-6-quinolyl)pyrazolo[3,4-d]pyrimidin-6-yl]amino]cyclopentanecarbonyl]piperazin-1-yl]acetonitrile] reads 25 to 200 nM; that for `Cc1ccc2cc(-n3nc(Br)c4cnc(N[C@@H]5CC[C@@H](P(C)(C)=O)C5)nc43)cc(CCO)c2n1` [2-[6-[3-bromo-6-[[(1R,3R)-3-dimethyl-phosphorylcyclopentyl]amino]pyrazolo [3,4-d]pyrimidin-1-yl]-2-methyl-8-quinolyl]ethanol], 25 to 200 nM. Consider `O=C(O)CCNC(=O)[C@@H]1CC[C@@H](Nc2ncc3c(Br)nn(-c4cc(F)c5ncccc5c4)c3n2)C1` [3-((1R,3R)-3-((3-bromo-1-(8-fluoroquinolin-6-yl)-1H-pyrazolo[3,4-d]pyrimidin-6-yl)amino)cyclopentane-1-carboxamido) propanoic acid], for which the IC50 was in the range of 25 to 200 nM.

On to `CNC(=O)C1(C)CC[C@@H](Nc2ncc3c(Br)nn(-c4cc(Cl)cc(C(N)=O)c4)c3n2)C1` (stereo partly drawn) [3-[3-bromo-6-[[(1R)-3-methyl-3-(methylcarbamoyl)cyclopentyl]amino]pyrazolo[3,4-d]pyrimidin-1-yl]-5-chloro-benzamide], for which the IC50 was less than 25 nM. The value for `CP(C)(=O)[C@@H]1CC[C@@H](Nc2ncc3c(Br)nn(-c4cc(C#N)cc(OCC5(F)CNC5)c4)c3n2)C1` [3-[3-bromo-6-[[(1R,3R)-3-dimethylphosphorylcyclopentyl]amino]pyrazolo[3,4-d]pyrimidin-1-yl]-5-[(3-fluoroazetidin-3-yl)methoxy]benzonitrile] was 25 to 200 nM; that for `CNC(=O)[C@]1(C)CC[C@@H](Nc2ncc3c(Br)nn(-c4cc(Cl)cc(C(=O)N(C)C)c4)c3n2)C1` [3-[3-bromo-6-[[(1R,3R)-3-methyl-3-(methylcarbamoyl)cyclopentyl]amino]pyrazolo[3,4-d]pyrimidin-1-yl]-5-chloro-N,N-dimethyl-benzamide] was 25 to 200 nM; that for `CNC(=O)c1cc(Cl)cc(-n2nc(Br)c3cnc(N[C@@H]4CC[C@@](C)(C(=O)NC)C4)nc32)c1` [3-[3-bromo-6-[[(1R,3R)-3-methyl-3-(methylcarbamoyl)cyclopentyl]amino]pyrazolo[3,4-d]pyrimidin-1-yl]-5-chloro-N-methyl-benzamide] was 25 to 200 nM. For `CNC(=O)[C@]1(C)CC[C@@H](Nc2ncc3c(Br)nn(-c4cc(F)cc(C(N)=O)c4)c3n2)C1` [3-[3-bromo-6-[[(1R,3R)-3-methyl-3-(methylcarbamoyl)cyclopentyl]amino]pyrazolo[3,4-d]pyrimidin-1-yl]-5-fluoro-benzamide], the IC50 lay within 25 to 200 nM.

Regarding `Cc1nnc(-c2ccc(-n3nc(Br)c4cnc(NC5CC(P(C)(C)=O)C5)nc43)cc2CCC#N)s1` (stereo not drawn) [3-[5-[3-bromo-6-[(3-dimethylphosphoryl-cyclobutyl)amino]pyrazolo[3,4-d]pyrimidin-1-yl]-2-(5-methyl-1,3,4-thiadiazol-2-yl)phenyl]propanenitrile], the IC50 lay within 25 to 200 nM.

Turning to `Cc1nnc(-c2ccc(-n3nc(Br)c4cnc(N[C@@H]5CC[C@@](C)(N(C)C)C5)nc43)cc2CCC#N)s1` [3-[5-[3-bromo-6-[[(1R,3R)-3-(dimethylamino)-3-methyl-cyclopentyl]amino]pyrazolo[3,4-d]pyrimidin-1-yl]-2-(5-methyl-1,3,4-thiadiazol-2-yl)phenyl]propanenitrile], the IC50 lay in the range of 25 to 200 nM.

Consider `Cc1nnc(-c2ccc(-n3nc(Br)c4cnc(N[C@@H]5CC[C@@](C)(CO)C5)nc43)cc2CCC#N)s1` [3-[5-[3-bromo-6-[[(1R,3R)-3-(hydroxy-methyl)-3-methyl-cyclopentyl]amino]pyrazolo[3,4-d]pyrimidin-1-yl]-2-(5-methyl-1,3,4-thiadiazol-2-yl)phenyl] propanenitrile], for which the IC50 was in the range of 25 to 200 nM.

Take `Cc1nnc(-c2ccc(-n3nc(Br)c4cnc(N[C@@H]5CC[C@](C(=O)N6CCNCC6)(C(C)C)C5)nc43)cc2CCC#N)s1` [3-[5-[3-bromo-6-[[(1R,3R)-3-isopropyl-3-(piperazine-1-carbonyl)cyclopentyl]amino]pyrazolo[3,4-d]pyrimidin-1-yl]-2-(5-methyl-1,3,4-thiadiazol-2-yl)phenyl] propanenitrile]: the IC50 was less than 25 nM. The result for `CNC(=O)[C@]1(C)CC[C@@H](Nc2ncc3c(Br)nn(-c4ccc(-c5nnc(C)s5)c(CCC(=O)O)c4)c3n2)C1` [3-[5-[3-bromo-6-[[(1R,3R)-3-methyl-3-(methylcarbamoyl)cyclopentyl]amino]pyrazolo[3,4-d]pyrimidin-1-yl]-2-(5-methyl-1,3,4-thiadiazol-2-yl)phenyl] propanoic acid] reads 25 to 200 nM; that for `Cc1nnc(-c2ccc(-n3nc(Br)c4cnc(N[C@@H]5CC[C@](C)(O)C5)nc43)cc2CCC#N)s1` [3-[5-[3-bromo-6-[[(1R,3S)-3-hydroxy-3-methyl-cyclopentyl]amino]pyrazolo [3,4-d]pyrimidin-1-yl]-2-(5-methyl-1,3,4-thiadiazol-2-yl)phenyl]propanenitrile], 25 to 200 nM; that for `Cc1nnc(-c2ccc(-n3nc(Br)c4cnc(N[C@@H]5CCC6(CC(=O)N(C)C6=O)C5)nc43)cc2CCC#N)s1` (stereo partly drawn) [3-[5-[3-bromo-6-[[(8R)-2-methyl-1,3-dioxo-2-azaspiro[4.4]nonan-8-yl]amino]pyrazolo[3,4-d]pyrimidin-1-yl]-2-(5-methyl-1,3,4-thiadiazol-2-yl)phenyl]propanenitrile; 2,2,2-trifluoroacetic acid], 25 to 200 nM.

Regarding `CNC(=O)[C@]1(C)CC[C@@H](Nc2ncc3c(Br)nn(-c4cc(CCC(=O)O)c5ncccc5c4)c3n2)C1` [3-[6-[3-bromo-6-[[(1R,3R)-3-methyl-3-(methylcarbamoyl)cyclopentyl]amino]pyrazolo[3,4-d]pyrimidin-1-yl]-8-quinolyl]propanoic acid], the IC50 was less than 25 nM.

As for `NCCc1cc(-n2nc(Br)c3cnc(NC4CC(O)C4)nc32)cc2cccnc12` (stereo not drawn) [3-[[1-[8-(2-aminoethyl)-6-quinolyl]-3-bromo-pyrazolo[3,4-d]pyrimidin-6-yl]amino] cyclobutanol], the IC50 was in the range of 25 to 200 nM. The value for `OC1CC(Nc2ncc3c(Br)nn(-c4cc(F)c5ncccc5c4)c3n2)C1` (stereo not drawn) [3-[[3-bromo-1-(8-fluoro-6-quinolyl)pyrazolo[3,4-d]pyrimidin-6-yl]amino] cyclobutanol] was 25 to 200 nM; that for `Cc1nnc(-c2ccc(-n3nc(Br)c4cnc(NC5CC(O)C5)nc43)cc2)s1` (stereo not drawn) [3-[[3-bromo-1-[4-(5-methyl-1,3,4-thiadiazol-2-yl)phenyl]pyrazolo[3,4-d]pyrimidin-6-yl]amino]cyclobutanol] was 25 to 200 nM; that for `COC1CC(Nc2ncc3c(Br)nn(-c4cc(F)c5ncccc5c4)c3n2)C1` (stereo not drawn) [3-bromo-1-(8-fluoro-6-quinolyl)-N-(3-methoxycyclobutyl)pyrazolo[3,4-d]pyrimidin-6-amine] was 25 to 200 nM. The value for `Fc1cc(-n2nc(Br)c3cnc(NC4COC4)nc32)cc2cccnc12` [3-bromo-1-(8-fluoro-6-quinolyl)-N-(oxetan-3-yl)pyrazolo[3,4-d]pyrimidin-6-amine] was 25 to 200 nM; that for `CO[C@@H]1CC[C@@H](Nc2ncc3c(Br)nn(-c4cc(F)c5ncccc5c4)c3n2)C1` [3-bromo-1-(8-fluoro-6-quinolyl)-N-[(1R,3R)-3-methoxycyclopentyl]pyrazolo[3,4-d] pyrimidin-6-amine] was 25 to 200 nM. The result for `Fc1cc(-n2nc(Br)c3cnc(N[C@H]4CCOC4)nc32)cc2cccnc12` [3-bromo-1-(8-fluoro-6-quinolyl)-N-[(3S)-tetrahydrofuran-3-yl]pyrazolo [3,4-d]pyrimidin-6-amine] reads 25 to 200 nM; that for `Fc1cc(-n2nc(Br)c3cnc(NC4CCOC4)nc32)cc2cccnc12` (stereo not drawn) [3-bromo-1-(8-fluoro-6-quinolyl)-N-tetrahydrofuran-3-yl-pyrazolo[3,4-d] pyrimidin-6-amine], 25 to 200 nM; that for `Cc1nnc(-c2ccc(-n3nc(Br)c4cnc(N[C@@H]5CCOC5)nc43)cc2)s1` [3-bromo-1-[4-(5-methyl-1,3,4-thiadiazol-2-yl)phenyl]-N-[(3R)-tetrahydrofuran-3-yl] pyrazolo[3,4-d]pyrimidin-6-amine], 25 to 200 nM. Consider `Cc1nnc(-c2ccc(-n3nc(Br)c4cnc(NC5CCOC5)nc43)cc2)s1` (stereo not drawn) [3-bromo-1-[4-(5-methyl-1,3,4-thiadiazol-2-yl)phenyl]-N-tetrahydrofuran-3-yl-pyrazolo [3,4-d]pyrimidin-6-amine], for which the IC50 is 25 to 200 nM. The result for `Cc1nnc(-c2ccc(-n3nc(Br)c4cnc(NC5CC(P(C)(C)=O)C5)nc43)cc2CCS(C)(=O)=O)s1` (stereo not drawn) [3-bromo-N-(3-dimethylphosphorylcyclo-butyl)-1-[3-(2-methylsulfonylethyl)-4-(5-methyl-1,3,4-thiadiazol-2-yl)phenyl] pyrazolo[3,4-d]pyrimidin-6-amine] reads 25 to 200 nM. The value for `Cc1nnc(-c2ccc(-n3nc(Br)c4cnc(NC5CC(P(C)(C)=O)C5)nc43)cc2)s1` (stereo not drawn) [3-bromo-N-(3-dimethylphosphorylcyclo-butyl)-1-[4-(5-methyl-1,3,4-thiadiazol-2-yl)phenyl]pyrazolo[3,4-d]pyrimidin-6-amine] was 25 to 200 nM.
